Data taken from paper PMC4623604, “Discovery of Small Molecules that Inhibit the Disordered Protein, p27^Kip1” (Scientific Reports, 2015).

What was measured:
p27-D2/Cdk2/cyclin A = molecular target: T1, p27-D2/Cdk2/cyclin A (Homo sapiens, UniProt P46527); test: 2D 1H-15N TROSY-HSQC NMR displacement of p27-D2 from Cdk2/cyclin A; type: binding; settings: 3 mM SJ403, 100 μM complex, 308 K
T1 construct: p27-D2 (residues 58-105 of human p27); 6xHis (N, cleaved yes); made in house; host or cells: E. coli for p27-D2
T1 sequence (P46527 58-105): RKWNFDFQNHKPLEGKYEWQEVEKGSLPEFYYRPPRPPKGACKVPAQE
Protocol: We next used NMR spectroscopy to monitor the displacement of ^2H/^13C/^15N-labeled p27-D2 from Cdk2/cyclin A by SJ403; the complex of p27-D2 with Cdk2/cyclin A (100 μM) was prepared with a slight excess of ^2H/^13C/^15N-p27-D2 (mole ratio, 1.1:1.0 p27-D2:Cdk2/cyclin A). […] In this method, the relative population of the free state resonances (p^f; for the resonance of each p27-D2 residue) was determined as a fraction of the total intensity of both free and bound resonances for a given residue. These values were compared by forming the ratio of the two relative free state populations (p^fw/SJ403/p^fw/o SJ403); values greater than 1 indicated compound-dependent displacement. The relative populations for the bound state (p^b) were also determined for samples without (p^bw/o SJ403) and with SJ403 (p^bw/SJ403). […]
Figure 5 2D ^1H-^15N TROSY-HSQC NMR analysis of displacement of ^15N-p27-D2 from Cdk2/cyclin A by SJ403. 2D ^1H-^15N TROSY-HSQC NMR spectra of p27-D2/Cdk2/cyclin A in the absence (control) and presence of SJ403 (3 mM), respectively, were recorded. […]

p27-KID = molecular target: T2, p27-KID (Homo sapiens, UniProt P46527); test: NMR 2D 1H-15N in-phase HSQC titration, binding affinity for p27:small molecule interactions; settings: sixteen-point titration, 100 μM 15N-p27-KID, inhibitor 0-3 mM
T2 construct: 6xHis (N, cleaved yes); made in house; host or cells: E. coli (pET28a)
T2 sequence (P46527 22-105): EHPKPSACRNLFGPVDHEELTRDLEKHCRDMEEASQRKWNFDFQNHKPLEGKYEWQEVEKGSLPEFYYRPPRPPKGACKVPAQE
Protocol: 1D and 2D NMR analysis of these molecules led to the identification of 15 additional p27-D2-binding compounds (six with Group 1-like binding features and nine with Group 2-like features; Suppl. Fig. 3b and Suppl. Table 1b).
Sixteen point titrations of representative fragment hits from Group 1 and Group 2 (SJ572710 and SJ572403, respectively) into ^15N-p27-KID (100 μM) were recorded using an adopted “in-phase” 2D ^1H-^15N HISQC with proton decoupling during ^15N chemical shift labeling achieved with a WALTZ16 composite pulse with an amplitude of 7.1 kHz[54][55]. All experiments were collected at a Bruker Avance 800 MHz spectrometer equipped with TCI cryogenic gradient probe. The following molar ratios of ^15N-p27-KID (100 μM) to inhibitor were used: 1:0, 1:0.1, 1:1.5, 1:3, 1:4.5, 1:6, 1:7.5, 1:9, 1:10.5, 1:12, 1:15, 1:18, 1:21, 1:24, 1:27 and 1:30. Each spectrum was recorded with 256 (t1,max = 31.0 ms) and 1024 (t2,max = 106.5 ms) complex points in the ^15N and ^1H dimensions, respectively, with eight transients collected per point. The spectral resolution of the ^1H and ^15N dimensions was 2.4 and 1.7 Hz, respectively. […] The data was processed using the NMRPipe package[56] and analyzed using in-house scripts written in Python using the Scipy computing libraries and Mathematica (Wolfram Research). […]

displacement of p27-D2 from Cdk2/cyclin A by NMR (p27-D2/Cdk2/cyclin A): partial displacement
Kd (p27-KID): 2200 ± 300 µM
Compound: CCn1c(C)c(C)n2c3c(=O)n(C)c(=O)n(C)c3nc12 [SJ403]
